Data: patent US6169181A, “Compounds useful to treat retroviral infections” (Pharmacia & Upjohn Company, priority 1998, dated 2001)
“And” between values parts separate entries of the source, which are not always exact repeats. Identical values can stand only once. Like-named read-outs stand apart in the source and are kept apart here.

Legend:
HIV-1 protease [1] = biological target: T1, HIV-1 protease (Human immunodeficiency virus type 1 group M subtype B, UniProt P04585); assay: biochemical; settings: read-out: HIV Protease FITC Assay Ki
Outline: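 Biotinylated, FITC-labelled peptide substrate cleaved in 0.1 M sodium acetate pH 5.5, 1.0 M NaCl, 0.05% NP-40, room temperature. Filtered labelled product read by fluorescence; nonlinear least-squares fit.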

HIV-1 protease [2] = biological target: T1, HIV-1 protease; assay: biochemical; settings: read-out: Protease % Inhib
Outline: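 Percent inhibition came from fluorescence of FITC-tagged cleavage product, separated by filtration from uncleaved substrate captured on streptavidin-coated beads. The enzyme (10 μl of 0.1 μM) and compound acted on a biotin/FITC dual-labelled peptide for one hour at room temperature in the dark. The reaction ran in 0.1 M sodium acetate, pH 5.5, with 1.0 M NaCl and 0.05% NP-40.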

SMILES | Ki (HIV-1 protease [1]; Table I) | inhibition at 0.123 µM (HIV-1 protease [2]; Table I, Dose 0.123 μM) | inhibition at 0.87 µM (HIV-1 protease [2]; Table I, Dose 0.870 μM) | inhibition at 1.1 µM (HIV-1 protease [2]; Table I, Dose 1.100 μM) | inhibition at 3.3 µM (HIV-1 protease [2]; Table I, Dose 3.300 μM) | inhibition at 10 µM (HIV-1 protease [2]; Table I, Dose 10.000 μM) | inhibition at 30 µM (HIV-1 protease [2]; Table I, Dose 30.000 μM) | inhibition at 0.37 µM (HIV-1 protease [2]; Table I, Dose 0.370 μM) | Ki (HIV-1 protease [1]) | inhibition at 0.123 µM (HIV-1 protease [2]) | inhibition at 0.37 µM (HIV-1 protease [2]) | inhibition at 1.1 µM (HIV-1 protease [2]) | inhibition at 3.3 µM (HIV-1 protease [2]) | inhibition at 10 µM (HIV-1 protease [2]) | inhibition at 30 µM (HIV-1 protease [2]) | inhibition at 100 µM (HIV-1 protease [2]; Table I, Dose 100.000 μM)
CCC(C1=C(O)CC(CC(C)C)(CC(C)C)OC1=O)c1cccc(NS(=O)(=O)c2cn(C)cn2)c1 (stereo not shown) [Example 47, N-[3-[1-(4-hydroxy-6,6-diisobutyl-2-oxo-5,6-dihydro-2H-pyran-3-yl)-propyl]-phenyl]-1-methyl-1H-imidazole-4-sulfonamide] | 3 nM and 2.98 nM | 66.3% | 86.8% | 94.7% | 101% | 98.7% | 84.5% | – | – | – | – | – | – | – | – | –
CCCC1(CCC)CC(O)=C(C(c2cccc(NS(=O)(=O)c3cn(C)cn3)c2)C2CC2)C(=O)O1 (stereo not shown) [Example 48] | 0.52 nM | 111% | – | 110% | 89.3% | 111% | 105% | 104% | – | – | – | – | – | – | – | –
CCCC1(CCC)CC(O)=C(C(c2cccc(NS(=O)(=O)c3cccc4cccnc34)c2)C2CC2)C(=O)O1 (stereo not shown) [Example 49] | 0.96 nM | 111% | – | 120% | 106% | 108% | 112% | 120% | – | – | – | – | – | – | – | –
CCCC1(CCC)CC(O)=C(C(c2cccc(NS(=O)(=O)c3ccc(C#N)cc3)c2)C2CC2)C(=O)O1 (stereo not shown) [Example 50] | 1.78 nM | 101% | – | 113% | 112% | 101% | 84.8% | 108% | – | – | – | – | – | – | – | –
CCCC1(CCC)CC(O)=C(C(c2cccc(NS(=O)(=O)c3ccc(F)cc3)c2)C2CC2)C(=O)O1 (stereo not shown) [Example 51, 4-Fluoro-N-[3-[1-(4-hydroxy-2-oxo-6,6-dipropyl-5,6-dihydro-2H-pyran-3-yl)-cyclopropylmethyl]-phenyl]-benzenesulfonamide] | 2.66 nM | 98.7% | – | 105% | 101% | 95.1% | 79.7% | 104% | – | – | – | – | – | – | – | –
CCCC1(CCc2ccccc2)CC(O)=C(C(c2cccc(NS(=O)(=O)c3ccc(C#N)cc3)c2)C2CC2)C(=O)O1 (stereo not shown) [Example 58] | 3.8 nM | 64.9% | – | 94.2% | 95.9% | 100% | 89.8% | 83.7% | – | – | – | – | – | – | – | –
CCCC1(CCc2ccccc2)CC(O)=C(C(c2cccc(NS(=O)(=O)c3ccc(F)cc3)c2)C2CC2)C(=O)O1 (stereo not shown) [Example 59] | 3.5 nM | 76.7% | – | 102% | 99.9% | 105% | 102% | 90.5% | – | – | – | – | – | – | – | –
CCCC1(CCc2ccccc2)CC(O)=C(C(c2cccc(NS(=O)(=O)c3cccc4cccnc34)c2)C2CC2)C(=O)O1 (stereo not shown) [Example 60, N-[3-[1-(4-Hydroxy-2-oxo-6-phenethyl-6-propyl-5,6-dihydro-2H-pyran-3-yl)-cyclopropylmethyl]-phenyl]-8-quinolinesulfonamide] | 0.95 nM | 73% | – | 101% | 101% | 106% | 107% | 94.3% | – | – | – | – | – | – | – | –
CCCC1(CCc2ccccc2)CC(O)=C(C(c2cccc(NS(=O)(=O)c3cn(C)cn3)c2)C2CC2)C(=O)O1 (stereo not shown) [Example 61] | 0.71 nM | 86.8% | – | 103% | 103% | 106% | 104% | 95.5% | – | – | – | – | – | – | – | –
Cn1cnc(S(=O)(=O)Nc2cccc(C(C3=C(O)CC(CCc4ccccc4)(CCc4ccccc4)OC3=O)C3CC3)c2)c1 (stereo not shown) [Example 62] | 0.8 nM | 76.2% | – | 85.3% | 78.7% | 79.7% | 79.4% | 85.2% | – | – | – | – | – | – | – | –
CCCC1(CCc2ccccc2)CC(O)=C(C(CC)c2cccc(NS(=O)(=O)c3ccc(F)cc3)c2)C(=O)O1 (stereo not shown) [Example 93A, 4-Fluoro-N-[3-[1-(4-hydroxy-2-oxo-6-phenethyl-6-propyl-5,6-dihydro-2H-pyran-3-yl)-propyl]-phenyl]-benzenesulfonamide] | – | – | – | – | – | – | – | – | 6.06 nM | 59.5% | 90.4% | 104% | 109% | 109% | 96.6% | –
O=c1oc(C(CC2CC2)CC2CC2)cc(O)c1C(c1cccc(NS(=O)(=O)c2ccc(F)cc2)c1)C1CC1 (stereo not shown) [Example 94, N-(3-{Cyclopropyl-[6-(2-cyclopropyl-1-cyclopropylmethyl-ethyl)-4-hydroxy-2-oxo-2H-pyran-3-yl]-methyl}-phenyl)-4-fluoro-benzenesulfonamide] | – | – | – | – | – | – | – | – | 16.4 nM | 75.8% | 107% | 107% | 105% | 109% | 111% | –
Cn1cnc(S(=O)(=O)Nc2cccc(C(c3c(O)cc(C(CC4CC4)CC4CC4)oc3=O)C3CC3)c2)c1 (stereo not shown) [Example 97, N-(3-{Cyclopropyl-[6-(2-cyclopropyl-1-cyclopropylmethyl-ethyl)-4-hydroxy-2-oxo-2H-pyran-3-yl]-methyl}-phenyl)-1-methyl-1H-imidazole-4-sulfonamide] | – | – | – | – | – | – | – | – | 1 nM | 105% | 106% | 110% | 107% | 116% | 115% | –
O=c1oc(C(CC2CC2)CC2CC2)cc(O)c1C(c1cccc(NS(=O)(=O)c2ccccn2)c1)C1CC1 (stereo not shown) [Example 99, N-(3-{Cyclopropyl-[6-(2-cyclopropyl-1-cyclopropylmethyl-ethyl)-4-hydroxy-2-oxo-2H-pyran-3-yl]-methyl}-phenyl)-2-pyridine-sulfonamide] | 0.66 nM | 85.7% | – | 108% | 100% | 107% | 103% | 102% | – | – | – | – | – | – | – | –
Cn1ccnc1S(=O)(=O)Nc1cccc(C(c2c(O)cc(C(CC3CC3)CC3CC3)oc2=O)C2CC2)c1 (stereo not shown) [Example 100, N-(3-{Cyclopropyl-[6-(2-cyclopropyl-1-cyclopropylmethyl-ethyl)-4-hydroxy-2-oxo-2H-pyran-3-yl]-methyl}-phenyl)-1-methyl-1H-imidazole-2-sulfonamide] | 0.73 nM | 103% | – | 91% | 96.5% | – | 101% | 101% | – | – | – | – | – | – | – | 101%
O=c1oc(C(CC2CC2)CC2CC2)cc(O)c1C(c1cccc(NS(=O)(=O)c2nc3ccccc3[nH]2)c1)C1CC1 (stereo not shown) [Example 101, N-(3-{Cyclopropyl-[6-(2-cyclopropyl-1-cyclopropylmethyl-ethyl)-4-hydroxy-2-oxo-2H-pyran-3-yl]-methyl}-phenyl)-1H-benzo-imidazole-2-sulfonamide] | 0.66 nM | 70.2% | – | 93.3% | 97% | 102% | 97.3% | 84% | – | – | – | – | – | – | – | –
O=c1oc(C(CC2CC2)CC2CC2)cc(O)c1C(c1cccc(NS(=O)(=O)c2ncc[nH]2)c1)C1CC1 (stereo not shown) [Example 102, N-(3-{Cyclopropyl-[6-(2-cyclopropyl-1-cyclopropylmethyl-ethyl)-4-hydroxy-2-oxo-2H-pyran-3-yl]-methyl}-phenyl)-1H-imidazole-2-sulfonamide] | 0.7 nM | 87.1% | – | 102% | 110% | 117% | 108% | 92.7% | – | – | – | – | – | – | – | –
O=c1oc(C(CC2CC2)CC2CC2)cc(O)c1C(c1cccc(NS(=O)(=O)c2ccc3ccccc3n2)c1)C1CC1 (stereo not shown) [Example 103, N-(3-{Cyclopropyl-[6-(2-cyclopropyl-1-cyclopropylmethyl-ethyl)-4-hydroxy-2-oxo-2H-pyran-3-yl]-methyl}-phenyl)-2-quinolinesulfonamide] | 1.72 nM | 65.5% | – | 96.9% | 100% | 105% | 96% | 82.6% | – | – | – | – | – | – | – | –
CCC(CCOCCOC)c1cc(O)c(C(c2cccc(NS(=O)(=O)c3ccc(C#N)cc3)c2)C2CC2)c(=O)o1 (stereo not shown) [Example 106, 4-Cyano-N-(3-{cyclopropyl-[6-(1-ethyl-3-{2-methoxy-ethoxy}-propyl)-4-hydroxy-2-oxo-2H-pyran-3-yl]-methyl}-phenyl)-benzenesulfonamide] | 3.29 nM | 60.9% | – | 93.7% | 98.9% | 99% | 106% | 86.6% | – | – | – | – | – | – | – | –
